Like-named read-outs stand apart in the source and are kept apart here.
Assays:
[1] = biological target: T1, human full length PIK3KA Wild-type (p110α/p85α complex) (Homo sapiens, UniProt P42336); assay: PI3K-Alpha Kinase (PIK3CA) biochemical activity, wild-type (ADP-Glo); details: Soy PI lipid substrate, 20 uM ATP
T1 construct: Recombinant, catalytically active human full length PIK3KA Wild-type and H1047R mutant were purchased; 6xHis (N); purchased EMD Millipore Sigma 14-602M
Outline: (§1)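 ADP formation, measured by ADP-Glo luminescence after reaction to about 10% ATP conversion at 27° C., gives 10-point 4-parameter IC50 curves normalized to no-enzyme and DMSO controls. Lipid substrate was PIP2diC8 or Soy PI at 50 uM, with 20 uM ATP. WT or H1047R p110α/p85α complex (1-5 nM) was preincubated 1 h with compound.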

[2] = biological target: PI3K-α (PIK3CA) in MDA-MB-453 cells (Homo sapiens, UniProt P42336); assay: PI3K-Alpha Kinase (PIK3CA) activity in vitro cell based assay (AlphaLisa SureFire)
Procedure: PI3K-Alpha Kinase (PIK3CA) Activity In Vitro Cell Based Assay and Determining IC50 Values for Inhibitors
The MDA-MB-453 (ATCC-HTB-131) cell line was obtained from the American Type Culture Collection (Manassas, Va.). Cells were maintained in Dulbecco's Modified Eagle Media (DMVEM, Gibco 11965-092) supplemented with 10% Fetal Bovine Serum, heat inactivated (FBS HI, Gibco 10082-147), 1× non-essential amino acids (NEAA, Gibco 11140-050), and 1 mM sodium pyruvate (Gibco 11360-070). Cultures were maintained in a humidified incubator at 37° C. under […].
For compound testing in 0% FBS, MDA-MB-453 cells were seeded at a density of 1.5×10^4 cells per well in white 384-well plates in 20 μl of Minimum Essential Media (MEM) assay media with 1×NEAA, 1 mM sodium pyruvate, and 1 μg/mL human insulin (Sigma I9278). Compounds dissolved in 10 mM stock solutions in DMSO were serially diluted 1:3 in DMSO to generate a 10-point dilution series and plated using an acoustic liquid handler system (Echo 550 Series Liquid Handler, Labcyte). A 5× intermediate compound dilution plate in MEM with 1×NEAA and 1 mM sodium pyruvate (150 μM starting compound concentration in 1.5% DMSO) was then prepared. Five μl of the intermediate serially diluted compounds were added to the cell plate to final concentrations ranging from […] in 0.3% DMSO. 0.3% DMSO alone was used to establish the maximum (MAX) signal and GDC-0032 at a final concentration of 1 μM was used as a reference compound for the minimum (MIN) signal. After 3 hours treatment, the medium was removed, and the cells lysed in 10 μL of 1× SureFire Lysis buffer with shaking for 10 minutes at room temperature. The Acceptor Mix (Reaction Buffer 1+Reaction Buffer 2+Activation Buffer+SureFire Ultra Acceptor Beads) was prepared by diluting Activation buffer 25-fold in combined Reaction Buffer 1 and Reaction Buffer 2. The Acceptor beads were diluted 50-fold in the combined Reaction Buffers. Five μL of Acceptor Mix was added to each well, the plate was sealed and covered with foil and incubated for 1 hour at room temperature. The Donor Mix (dilution buffer+SureFire Ultra Donor Beads) was prepared by diluting Donor Beads 50-fold in dilution buffer. Five μL of the Donor Mix was added to each well and the plate sealed and covered with foil and incubated for 1 hour at room temperature in the dark. The plates were read on a Neo2 plate reader instrument from Biotek using standard AlphaLisa settings.
Compounds were tested in duplicate and the average % inhibition at each compound concentration was used to generate a single dose response curve. The data were processed using the Genedata-Screener tool. Relative IC50 values were determined using luminescence units by calculating percent inhibition with respect to the in-plate “MIN” (GDC-0032 reference control) and “MAX” (DMSO) controls. The data was analyzed using a 4-parameter nonlinear logistic equation (four-parameter logistic concentration-response curve):
Y=bottom+[(top−bottom)/1+(X/IC50)slope]
where Y=% inhibition, X=concentration of inhibitor, bottom=minimum value of y attained by curve-fit, top=maximum value of y attained by curve-fit and slope=steepness of curve at the IC50.
% Inhibition=[(signal at X−median Min)/(median Max−median Min)]×100
IC50: concentration of compound that reduces a given response (ligand binding, enzyme response) by 50%. Relative IC50: concentration giving half the compound's maximum response.
For IC50 values shown in Table B, “A” means IC50<50 nM; “B” means IC50 ranging between 50 nM and 100 nM; “C” means IC50 ranging between 100 nM and 500 nM; “D” means IC50>500 nM.

[3] = biological target: T2, human full length PIK3KA H1047R mutant (p110α/p85α complex) (Homo sapiens, UniProt P42336, H1047R); assay: PI3K-Alpha Kinase (PIK3CA) biochemical activity, H1047R mutant (ADP-Glo); details: Soy PI lipid substrate, 20 uM ATP
T2 construct: Recombinant, catalytically active human full length PIK3KA Wild-type and H1047R mutant were purchased; 6xHis (N); purchased EMD Millipore Sigma 14-792M
Outline: as §1

[4] = read-out: PI3K-α (PIK3CA) in vitro cell based assay IC50, 0% FBS, 3 hours treatment
[5] = 0% FBS, 3 hours treatment, read-out: PI3K-α (PIK3CA) in vitro cell based assay IC50

Sequence of PI3K-α (PIK3CA) in MDA-MB-453 cells (P42336 whole entry): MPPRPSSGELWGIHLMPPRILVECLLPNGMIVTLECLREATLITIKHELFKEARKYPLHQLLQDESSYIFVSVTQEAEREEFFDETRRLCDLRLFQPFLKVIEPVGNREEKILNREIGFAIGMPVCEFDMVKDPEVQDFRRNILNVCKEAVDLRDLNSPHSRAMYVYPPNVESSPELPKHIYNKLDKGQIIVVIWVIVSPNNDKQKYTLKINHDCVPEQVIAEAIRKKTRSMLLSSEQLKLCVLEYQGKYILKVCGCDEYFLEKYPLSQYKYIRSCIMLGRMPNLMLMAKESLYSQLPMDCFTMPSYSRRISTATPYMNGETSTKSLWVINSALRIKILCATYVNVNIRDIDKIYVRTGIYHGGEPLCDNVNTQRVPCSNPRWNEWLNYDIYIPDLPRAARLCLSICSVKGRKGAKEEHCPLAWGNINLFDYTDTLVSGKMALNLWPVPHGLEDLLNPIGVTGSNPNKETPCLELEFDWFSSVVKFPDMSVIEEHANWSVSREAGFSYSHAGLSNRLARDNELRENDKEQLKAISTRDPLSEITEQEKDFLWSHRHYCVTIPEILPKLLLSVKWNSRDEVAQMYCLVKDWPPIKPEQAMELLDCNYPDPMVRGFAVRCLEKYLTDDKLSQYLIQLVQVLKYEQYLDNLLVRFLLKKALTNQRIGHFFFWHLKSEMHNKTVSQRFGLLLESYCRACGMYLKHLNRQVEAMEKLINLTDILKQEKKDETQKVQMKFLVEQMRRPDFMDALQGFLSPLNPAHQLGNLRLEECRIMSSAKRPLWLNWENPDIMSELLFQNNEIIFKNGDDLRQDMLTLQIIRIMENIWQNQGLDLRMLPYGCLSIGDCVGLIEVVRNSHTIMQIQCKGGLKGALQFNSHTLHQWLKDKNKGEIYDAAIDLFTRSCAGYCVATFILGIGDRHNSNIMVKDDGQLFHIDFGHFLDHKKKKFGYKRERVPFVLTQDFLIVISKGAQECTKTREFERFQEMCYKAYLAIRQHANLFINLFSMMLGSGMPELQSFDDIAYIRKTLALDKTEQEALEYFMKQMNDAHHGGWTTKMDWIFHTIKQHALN
Sequence of PI3K-α (PIK3CA) in MDA-MB-453 cells (P27986 2-724, further chain): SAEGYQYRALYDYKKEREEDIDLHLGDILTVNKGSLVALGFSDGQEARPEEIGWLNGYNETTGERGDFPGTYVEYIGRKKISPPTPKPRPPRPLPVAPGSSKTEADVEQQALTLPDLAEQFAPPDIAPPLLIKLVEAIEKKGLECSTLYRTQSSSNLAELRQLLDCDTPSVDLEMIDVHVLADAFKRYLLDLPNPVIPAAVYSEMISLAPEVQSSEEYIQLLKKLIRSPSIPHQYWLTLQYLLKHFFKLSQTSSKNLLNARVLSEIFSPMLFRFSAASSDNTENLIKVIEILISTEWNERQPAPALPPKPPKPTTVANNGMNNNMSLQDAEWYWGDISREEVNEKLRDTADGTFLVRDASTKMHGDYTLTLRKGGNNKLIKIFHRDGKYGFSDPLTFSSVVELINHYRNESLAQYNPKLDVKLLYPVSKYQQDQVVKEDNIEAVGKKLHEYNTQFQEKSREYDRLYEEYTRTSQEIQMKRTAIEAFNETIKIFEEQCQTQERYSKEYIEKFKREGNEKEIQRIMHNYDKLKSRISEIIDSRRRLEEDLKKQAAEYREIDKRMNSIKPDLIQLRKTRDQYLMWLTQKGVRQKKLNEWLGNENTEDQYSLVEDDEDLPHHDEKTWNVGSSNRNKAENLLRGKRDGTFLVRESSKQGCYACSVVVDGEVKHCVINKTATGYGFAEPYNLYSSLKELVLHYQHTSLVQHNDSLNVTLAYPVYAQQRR
T2 sequence (P42336 whole entry H1047R): as the sequence (P42336 whole entry) above, with H1047R counted along it
T2 sequence (P27986 whole entry partner): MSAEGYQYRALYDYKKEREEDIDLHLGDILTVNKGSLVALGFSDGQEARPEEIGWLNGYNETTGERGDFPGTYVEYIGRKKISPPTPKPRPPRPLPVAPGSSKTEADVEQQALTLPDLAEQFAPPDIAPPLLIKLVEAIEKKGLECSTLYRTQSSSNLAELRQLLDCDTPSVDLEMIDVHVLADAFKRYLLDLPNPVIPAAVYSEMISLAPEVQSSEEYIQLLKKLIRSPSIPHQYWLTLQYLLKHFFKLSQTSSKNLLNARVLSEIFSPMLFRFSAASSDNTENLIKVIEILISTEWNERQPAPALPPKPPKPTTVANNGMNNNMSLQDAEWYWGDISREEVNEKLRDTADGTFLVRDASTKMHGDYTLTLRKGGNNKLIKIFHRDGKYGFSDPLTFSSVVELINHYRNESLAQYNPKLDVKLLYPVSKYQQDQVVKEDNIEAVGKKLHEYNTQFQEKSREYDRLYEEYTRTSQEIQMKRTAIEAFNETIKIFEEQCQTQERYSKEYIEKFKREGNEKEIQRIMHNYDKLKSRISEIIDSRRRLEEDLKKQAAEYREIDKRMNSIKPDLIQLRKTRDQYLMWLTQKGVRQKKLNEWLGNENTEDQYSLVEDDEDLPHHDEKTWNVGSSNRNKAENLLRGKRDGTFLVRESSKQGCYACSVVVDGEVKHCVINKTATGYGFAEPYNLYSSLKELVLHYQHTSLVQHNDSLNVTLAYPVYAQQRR

Compound: COc1ncc(-n2cc(-c3oc4c(C(C)Nc5ccccc5C(=O)O)cc(C)cc4c(=O)c3C)cn2)cn1 (single isomer, unassigned) [Example 72, 2-[1-[2-[1-(2-Methoxypyrimidin-5-yl)pyrazol-4-yl]-3,6-dimethyl-4-oxo-chromen-8-yl]ethylamino]benzoic acid, Isomer 1,2,2,2-trifluoroacetic acid]
- IC50 [1]: 1000 to 5000 nM
- IC50 [2, 4]: 50 to 100 nM
- IC50 [3]: < 500 nM

Compound: Cc1cc(C(C)Nc2ccccc2C(=O)O)c2oc(-c3cnc(OC(C)C)nc3)cc(=O)c2c1 (single isomer, unassigned; isomer 1) [Example 41, 2-[1-[2-(2-Isopropoxypyrimidin-5-yl)-6-methyl-4-oxo-chromen-8-yl]ethylamino]benzoic acid, Isomer 1]
- IC50 [1]: > 10000 nM
- IC50 [2, 5]: > 500 nM
- IC50 [3]: > 10000 nM

Compound: Cc1cc(C(C)Nc2ccccc2C(=O)O)c2oc(-c3cnn(-c4ccc(C#N)c(F)c4)c3)cc(=O)c2c1 (single isomer, unassigned) [Example 85, 2-[1-[2-[1-(4-Cyano-3-fluoro-phenyl)pyrazol-4-yl]-6-methyl-4-oxo-chromen-8-yl]ethylamino]benzoic acid, Isomer 2,2,2,2-trifluoroacetic acid]
- IC50 [1]: 1000 to 5000 nM
- IC50 [2, 4]: 100 to 500 nM
- IC50 [3]: < 500 nM

Compound: Cc1cc(C(C)Nc2ccccc2C(=O)O)c2oc(-c3cnn(C(F)F)c3)cc(=O)c2c1 (single isomer, unassigned) [Example 52, 2-[1-[2-[1-(Difluoromethyl)pyrazol-4-yl]-6-methyl-4-oxo-chromen-8-yl]ethylamino]benzoic acid, Isomer 2,2,2,2-trifluoroacetic acid]
- IC50 [1]: 1000 to 5000 nM
- IC50 [2, 4]: 50 to 100 nM
- IC50 [3]: < 500 nM

Compound: Cc1cc(C(C)Nc2ccccc2C(=O)O)c2oc(-c3cnn(-c4ccc(C#N)nc4)c3)cc(=O)c2c1 (single isomer, unassigned) [Example 82, 2-[1-[2-[1-(6-Cyano-3-pyridyl)pyrazol-4-yl]-6-methyl-4-oxo-chromen-8-yl]ethylamino]benzoic acid, Isomer 2,2,2,2-trifluoroacetic acid]
- IC50 [1]: 1000 to 5000 nM
- IC50 [2, 4]: 50 to 100 nM
- IC50 [3]: < 500 nM

Compound: Cc1cc(C(C)Nc2ccccc2C(=O)O)c2oc(-c3ccc(S(C)(=O)=O)nc3)cc(=O)c2c1 (single isomer, unassigned; isomer 1) [Example 39, 2-[1-[6-Methyl-2-(6-methylsulfonyl-3-pyridyl)-4-oxo-chromen-8-yl]ethylamino]benzoic acid, Isomer 1]
- IC50 [1]: > 10000 nM
- IC50 [2, 5]: > 500 nM
- IC50 [3]: > 10000 nM

Compound: Cc1cc(C(C)Nc2ccc(Cl)nc2C(=O)O)c2oc(-c3ccccn3)c(C)c(=O)c2c1 (single isomer, unassigned) [Example 121, 6-Chloro-3-[1-[3,6-dimethyl-4-oxo-2-(2-pyridyl)chromen-8-yl]ethylamino]pyridine-2-carboxylic acid, Isomer 1,2,2,2-trifluoroacetic acid]
- IC50 [1]: 1000 to 5000 nM
- IC50 [2, 4]: < 50 nM
- IC50 [3]: < 500 nM

Compound: Cc1cc(C(C)Nc2ccc(F)c(F)c2C(=O)O)c2oc(-c3ccccn3)c(C)c(=O)c2c1 (single isomer, unassigned; isomer 1) [Example 128, 6-[1-[3,6-Dimethyl-4-oxo-2-(2-pyridyl)chromen-8-yl]ethylamino]-2,3-difluoro-benzoic acid, Isomer 1]
- IC50 [1]: 500 to 1000 nM
- IC50 [2, 5]: 50 to 100 nM
- IC50 [3]: < 500 nM

Compound: Cc1cc(C(C)Nc2ccccc2C(=O)O)c2oc(-c3cnn(-c4cccnc4)c3)cc(=O)c2c1 (single isomer, unassigned; isomer 1) [Example 49, 2-[1-[6-Methyl-4-oxo-2-[1-(3-pyridyl)pyrazol-4-yl]chromen-8-yl]ethylamino]benzoic acid, Isomer 1]
- IC50 [1]: > 10000 nM
- IC50 [2, 5]: > 500 nM
- IC50 [3]: > 10000 nM
